Results as given in patent US20050119288A1, “Dosing schedule for a novel anticancer agent” (Pfizer Inc, priority 2003, published 2005).
Marks after values point to notes of the source that are not given here.

Assays:
[1] = Pharmacokinetics in BT-474 tumor-bearing mice; assay type: in vivo; conditions: for Cave0-4 h: PO, day 22; for AUC(0-t) / Cmax: female, athymic, mouse, blood, po; for Cmax: day 22, read-out: Cmax 0.5 h
Experimental: (§1) Exponentially growing BT-474 cells (RPMI 1640 with 10 mM HEPES, 10% FBS, and pen/strep [Gibco]) were harvested and inoculated SC (5 million cells/animal) into female athymic mice. Trochar pieces of BT-474 tumors were then implanted into the right flank of animals. BT-474 tumor bearing mice (50-320 mm^3 in size, N=40) were randomized in 7 groups consisting 5-6 animals each. Animals were treated with vehicle (PO, BID) or the test compound (PO, QD or BID) as described in Table 4. The tumor measurements and body weight changes were obtained on days 1, 6, 11, 15 and 22. Tumor volume was calculated by the following formula: Tumor volume (mm^3)═(W×W)/2×L (L=length & W=width). Blood samples (˜50 μl) were isolated at 0.5, 1, 2, 4 and 8 hrs after dosing on day 22 for PK-analysis. Tumors were isolated at 0.5 hr post-dosing on day 22 for PD-analysis by ELISA.

[2] = target: erbB2 receptor autophosphorylation (Homo sapiens, UniProt P04626); test: p-erbB2 reduction in BT-474 tumors by ELISA; assay type: in vivo; conditions: 0.5 hr post-dosing on day 22; for inhibition in vivo at 30 mg/kg / inhibition in vivo at 50 mg/kg: BT-474, po, 0.5 h; for % p-erbB2 reduction: PO
Experimental: as §1

[3] = Pharmacokinetics in MDA-MB-453 tumor-bearing mice; assay type: in vivo; conditions: day 29; for Cave0-4 h / AUC(0-t) / Cmax: PO; for AUC(0-t) / Cmax: female, athymic, mouse, blood, po; for AUC(0-t): read-out: AUC0-4 h; for Cmax: read-out: Cmax 0.5 h
Experimental: Study Design: Exponentially growing MDA-MB-453 cells (DMEM/F12 with 10% FBS, and pen/strep [Gibco]) were harvested and inoculated SC (5 million cells/animal) into female athymic mice. MDA-MB-453 tumor bearing mice (˜100 mm^3 in size, N=64) were randomized in 8 groups consisting 8 animals each. Animals were treated with vehicle (PO, QD or BID) or the test compound (PO, QD or BID) as described in Table 6. The tumor measurements and body weight changes were obtained on days 1, 3, 7, 10, 14, 17, 21, 24, and 29. Tumor volume was calculated by the following formula: Tumor volume (mm^3)═(W×W)/2×L (L=length & W=width). Blood samples (˜50 μl) were isolated at 0.5, 1, 2, 4 and 8 hrs after dosing on day 29 for PK-analysis. Tumors were isolated at 0.5 hr post-dosing on day 29 for PD-analysis by ELISA.

[4] = test system: FRE/erbB2 tumors; test: FRE/erbB2 tumor growth in athymic mice; assay type: in vivo, murine; conditions: for % GI (% Growth Inhibition): day 7
Excerpt: The in vivo anti-tumor activity of the compounds for use in the methods of the present invention can be determined by the amount of inhibition of tumor growth by a test compound relative to a control. The tumor growth inhibitory effects of various compounds can be measured according to the method of Corbett T. H., et al., “Tumor Induction Relationships in Development of Transplantable Cancers of the Colon in Mice for Chemotherapy Assays, with a Note on Carcinogen Structure”, Cancer Res., 35, 2434-2439 (1975) and Corbett T. H., et al., “A Mouse Colon-tumor Model for Experimental Therapy”, Cancer Chemother. Rep. (Part 2)”, 5, 169-186 (1975), with slight modifications. Tumors can be induced in the left flank of mice by subcutaneous (sc) injection of 1-5 million log phase cultured tumor cells suspended in 0.1 ml RPMI 1640 medium. After sufficient time has elapsed for the tumors to become palpable (˜100-150 mm^3 in size/5-6 mm in diameter) the test animals (athymic female mice) are treated with test compound (formulated at a concentration of 10 to 15 mg/ml in 5 Gelucire or 0.5% methyl cellulose) by the intravenous (iv) or oral (po) route of administration once or twice daily for 7 to 29 consecutive days. In order to determine an anti-tumor effect, the tumor is measured in millimeters with a Vernier caliper across two diameters and the tumor size (mm^3) is calculated using the formula: Tumor size (mm^3)=(W×W)/2×L (L=length and W=width), according to the methods of Geran, R. I., et al. “Protocols for Screening Chemical Agents and Natural Products Against Animal Tumors and Other Biological Systems”, Third Edition, Cancer Chemother. Rep., 3, 1-104 (1972). Results are expressed as percent inhibition, according to the formula: Inhibition Growth (%)=[100-{(% Growth of Treated/% Growth of Control)×100}]. The flank site of tumor implantation provides reproducible dose/response effects for a variety of chemotherapeutic agents, and the method of measurement (tumor diameter) is a reliable method for assessing tumor growth rates.
An objective of the pre-clinical investigations was to determine whether the Cmax or area under the curve (AUC) of the test compound is critical for the anti-tumor efficacy. An additional goal was to establish a pharmacokinetics/pharmacodynamics (PK/PD) relationship in the FRE/erbB2 tumor model. The FRE/erbB2 is an engineered murine tumor model, which over-expresses human erbB2 with a trans-membrane mutation.

[5] = BID, 30 mg/kg (Total Daily Dose = 60 mg/kg)

erbB2 receptor autophosphorylation, sequence (P04626 23-1255): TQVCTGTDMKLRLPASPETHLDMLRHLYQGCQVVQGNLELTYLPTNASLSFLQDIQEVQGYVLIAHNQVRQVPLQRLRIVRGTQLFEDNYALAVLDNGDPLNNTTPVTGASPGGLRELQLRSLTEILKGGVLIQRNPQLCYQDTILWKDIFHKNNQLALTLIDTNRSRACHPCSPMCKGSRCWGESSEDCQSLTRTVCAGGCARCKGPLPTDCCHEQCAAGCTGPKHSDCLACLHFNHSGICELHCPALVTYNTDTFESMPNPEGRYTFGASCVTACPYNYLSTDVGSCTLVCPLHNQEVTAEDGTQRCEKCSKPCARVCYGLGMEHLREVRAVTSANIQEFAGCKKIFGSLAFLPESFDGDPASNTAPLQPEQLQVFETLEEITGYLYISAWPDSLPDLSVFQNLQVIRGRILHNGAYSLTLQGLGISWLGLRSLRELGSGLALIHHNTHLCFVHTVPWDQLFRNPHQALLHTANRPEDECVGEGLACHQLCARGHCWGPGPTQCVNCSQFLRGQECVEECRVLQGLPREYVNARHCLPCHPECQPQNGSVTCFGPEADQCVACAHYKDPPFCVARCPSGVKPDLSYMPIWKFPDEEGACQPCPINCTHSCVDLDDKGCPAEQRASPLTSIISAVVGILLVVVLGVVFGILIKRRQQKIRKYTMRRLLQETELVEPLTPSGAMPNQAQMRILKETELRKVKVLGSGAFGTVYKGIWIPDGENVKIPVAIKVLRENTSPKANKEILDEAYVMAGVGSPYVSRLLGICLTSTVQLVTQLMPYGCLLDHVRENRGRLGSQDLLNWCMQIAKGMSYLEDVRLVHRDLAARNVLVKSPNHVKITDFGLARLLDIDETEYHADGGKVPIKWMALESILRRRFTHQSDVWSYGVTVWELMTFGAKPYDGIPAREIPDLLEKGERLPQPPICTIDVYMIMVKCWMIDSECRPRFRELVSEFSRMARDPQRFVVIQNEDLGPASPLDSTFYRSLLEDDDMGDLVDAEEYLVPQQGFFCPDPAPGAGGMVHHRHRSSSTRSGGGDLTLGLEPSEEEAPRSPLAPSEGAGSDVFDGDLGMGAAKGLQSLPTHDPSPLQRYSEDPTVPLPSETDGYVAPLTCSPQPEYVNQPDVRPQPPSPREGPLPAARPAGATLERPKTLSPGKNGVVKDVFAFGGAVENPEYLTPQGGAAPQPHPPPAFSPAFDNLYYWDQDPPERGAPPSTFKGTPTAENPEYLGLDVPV

COCC(=O)NC/C=C/c1ccc2ncnc(Nc3ccc(Oc4ccc(C)nc4)c(C)c3)c2c1 [Test Compound, E-2-Methoxy-N-(3-{4-(3-methyl-4-(6-methyl-pyridin-3-yloxy)-phenylamino)-quinazolin-6-yl}-allyl)-acetamide]
Cave0-4 h ([1]; 15 mg/kg, BID): 120 ng/mL | Cave0-4 h ([1]; 30 mg/kg, BID, estimated based on the extrapolated concentration at 4 hr from 2 hr and 8 hr exposures): 360 ng/mL | Cave0-4 h ([1]; 30 mg/kg, QD, estimated based on the extrapolated concentration at 4 hr from 2 hr and 8 hr exposures): 320 ng/mL | Cave0-4 h ([1]; 50 mg/kg, BID): 1320 ng/mL | Cave0-4 h ([1]; 50 mg/kg, QD, estimated based on the extrapolated concentration at 4 hr from 2 hr and 8 hr exposures): 1060 ng/mL | AUC(0-t) ([1]; 15 mg/kg, BID, day 22, read-out: AUC0-4 h): 480 ng·h/mL | Cmax ([1]; 15 mg/kg, BID): 616 ng/mL | Cmax ([1]; 15 mg/kg, QD): 250 ng/mL | AUC(0-t) ([1]; 30 mg/kg, BID, day 22, estimated based on the extrapolated concentration at 4 hr from 2 hr and 8 hr exposures, read-out: AUC0-4 h): 1440 ng·h/mL | Cmax ([1]; 30 mg/kg, BID): 1570 ng/mL | AUC(0-t) ([1]; 30 mg/kg, QD, day 22, estimated based on the extrapolated concentration at 4 hr from 2 hr and 8 hr exposures, read-out: AUC0-4 h): 1280 ng·h/mL | Cmax ([1]; 30 mg/kg, QD): 1800 ng/mL | AUC(0-t) ([1]; 50 mg/kg, BID, day 22, read-out: AUC0-4 h): 5280 ng·h/mL | Cmax ([1]; 50 mg/kg, BID): 6170 ng/mL | AUC(0-t) ([1]; 50 mg/kg, QD, day 22, estimated based on the extrapolated concentration at 4 hr from 2 hr and 8 hr exposures, read-out: AUC0-4 h): 4220 ng·h/mL | Cmax ([1]; 50 mg/kg, QD): 5890 ng/mL | inhibition in vivo at 30 mg/kg [2, 5]: 26% | inhibition in vivo at 50 mg/kg ([2]; BID, 50 mg/kg (Total Daily Dose = 100 mg/kg)): ~75% | inhibition in vivo at 30 mg/kg ([2]; QD, 30 mg/kg): 57% | inhibition in vivo at 50 mg/kg ([2]; QD, 50 mg/kg): ~75% | % p-erbB2 reduction ([2]; BID, 15 mg/kg (Total Daily Dose = 30 mg/kg)): below the limit of detection | % p-erbB2 reduction [2, 5]: 26% | % p-erbB2 reduction ([2]; QD, 15 mg/kg, 15 mg/kg): below the limit of detection | Cave0-4 h ([3]; 25 mg/kg, BID): 215 ng/mL | Cave0-4 h ([3]; 50 mg/kg, BID): 509 ng/mL | Cave0-4 h ([3]; 50 mg/kg, QD): 591 ng/mL | Cave0-4 h ([3]; 100 mg/kg, BID): 1710 ng/mL | Cave0-4 h ([3]; 100 mg/kg, QD): 3120 ng/mL | Cave0-4 h ([3]; 200 mg/kg, QD): 6510 ng/mL | Cave0-4 h, 200 mg/kg QD group relative to 100 mg/kg BID group [3]: 3.8 fold | Cmax, 100 mg/kg QD group relative to 50 mg/kg QD and 50 mg/kg BID groups [3]: approximately 4 fold | Cmax, 200 mg/kg QD group relative to 100 mg/kg BID group [3]: 2.4 fold | AUC(0-t) ([3]; 25 mg/kg, BID): 857 ng·h/mL | Cmax ([3]; 25 mg/kg, BID): 952 ng/mL | AUC(0-t) ([3]; 50 mg/kg, BID): 2040 ng·h/mL | Cmax ([3]; 50 mg/kg, BID): 2390 ng/mL | AUC(0-t) ([3]; 50 mg/kg, QD): 2360 ng·h/mL | Cmax ([3]; 50 mg/kg, QD): 2760 ng/mL | AUC(0-t) ([3]; 100 mg/kg, BID): 6840 ng·h/mL | Cmax ([3]; 100 mg/kg, BID): 6870 ng/mL | AUC(0-t) ([3]; 100 mg/kg, QD): 12500 ng·h/mL | Cmax ([3]; 100 mg/kg, QD): 9770 ng/mL | AUC(0-t) ([3]; 200 mg/kg, QD): 26100 ng·h/mL | Cmax ([3]; 200 mg/kg, QD): 16700 ng/mL | Tumor vol. Day 1 (Mean ± SE) ([4]; 1.4 mg/kg IV, QD, 15 min/day): 121 ± 24 mm^3 | Tumor vol. Day 7 (Mean ± SE) ([4]; 1.4 mg/kg IV, QD, 15 min/day): 749 ± 178 mm^3 | % GI (% Growth Inhibition) ([4]; 1.4 mg/kg IV, QD, 15 min/day): 34% | % GI (% Growth Inhibition) ([4]; 1.4 mg/kg IV, QD, 15 min/day, listed as test compound): approximately 34% | Tumor vol. Day 1 (Mean ± SE) ([4]; 10.7 mg/kg IV, 4 hr/day): 117 ± 23 mm^3 | Tumor vol. Day 7 (Mean ± SE) ([4]; 10.7 mg/kg IV, 4 hr/day): 273 ± 81 mm^3 | % GI (% Growth Inhibition) ([4]; 10.7 mg/kg IV, 4 hr/day): 76% | Tumor vol. Day 1 (Mean ± SE) ([4]; 25 mg/kg PO, QD): 113 ± 18 mm^3 | Tumor vol. Day 7 (Mean ± SE) ([4]; 25 mg/kg PO, QD): 531 ± 101 mm^3 | % GI (% Growth Inhibition) ([4]; 25 mg/kg PO, QD, compare to Vehicle (IV) group): 54* % | % GI (% Growth Inhibition) ([4]; 25 mg/kg PO, QD, compare to Vehicle (IV) group, listed as test compound): Approximately 54% | FRE tumor volume in treated mice relative to control ([4]; 25 mg/kg orally once a day, seven days of treatment (FIG. 1)): about half of the control | tumor volume increase relative to vehicle control ([4]; about 10 mg/kg IV for seven days over a four hour period each day (FIG. 2)): less than 24% | tumor volume increase relative to vehicle control ([4]; rapid infusion of about 1.4 mg/kg daily over about 15 min/day (FIG. 2)): less than 66%
